What all share (type): functional
The subject of one assay is Candida albicans. As to the kind of experiment: Antifungal activity against Candida albicans after 24 hrs by serial dilution method.
For another assay, the system named is Candida tropicalis. As to the kind of experiment: Antifungal activity against Candida tropicalis after 24 hrs by serial dilution method.
The subject of a further assay is Candida parapsilosis. As to the kind of experiment: Antifungal activity against Candida parapsilosis after 24 hrs by serial dilution method. Conditions: Lodderomyces parapsilosis.
The subject of a further assay is Pichia kudriavzevii. As to the kind of experiment: Antifungal activity against Candida krusei after 24 hrs by serial dilution method.
The test system of a further assay is Cryptococcus neoformans. As to the kind of experiment: Antifungal activity against Cryptococcus neoformans after 72 hrs by serial dilution method.
In the next assay the test system is Aspergillus fumigatus. As to the kind of experiment: Antifungal activity against Aspergillus fumigatus after 7 days by serial dilution method. Conditions: 168 h.
The next assay deals with Trichophyton rubrum. As to the kind of experiment: Antifungal activity against Trichophyton rubrum after 7 days by serial dilution method. Conditions: 168 h.

Bridge positions count the residues as written; N and C are the ends. Square brackets hold non-standard residues; d marks the D form. Peptide text beside a SMILES is read from it. * marks the point of attachment. X1 = CCCOc1ccc(-c2ccc(-c3ccc(C(=O)*)cc3)cc2)cc1; Pro(4S-NH2) = N[C@@H]1CN[C@H](C(=O)O)C1; hTyr = N[C@@H](CCc1ccc(O)cc1)C(=O)O; Orn = NCCC[C@H](N)C(=O)O

Regarding `CCCCCOc1ccc2cc(C(=O)N[C@H]3CCCNC(=O)[C@@H]4C[C@H](N)CN4C(=O)[C@H]([C@H](C)O)NC(=O)[C@H](CCc4ccc(O)cc4)NC(=O)[C@@H]4C[C@H](N)CN4C(=O)[C@H]([C@@H](C)O)NC3=O)ccc2c1.Cc1ccc(S(=O)(=O)O)cc1`, the MIC80 is 2 µg/mL with Candida albicans; over 64 µg/mL against Candida tropicalis; 32 µg/mL in the assay with Candida parapsilosis; 8 µg/mL with Pichia kudriavzevii; over 64 µg/mL in the assay with Cryptococcus neoformans; over 64 µg/mL against Aspergillus fumigatus. This compound also registered an MIC80 in the assay on Trichophyton rubrum of over 64 µg/mL.
Consider `CCCCCCOc1ccc2cc(C(=O)N[C@H]3CCCNC(=O)[C@@H]4C[C@H](N)CN4C(=O)[C@H]([C@H](C)O)NC(=O)[C@H](CCc4ccc(O)cc4)NC(=O)[C@@H]4C[C@H](N)CN4C(=O)[C@H]([C@@H](C)O)NC3=O)ccc2c1.Cc1ccc(S(=O)(=O)O)cc1`, for which the MIC80 in the assay with Candida albicans is 2 µg/mL; with Candida tropicalis, 64 µg/mL; against Candida parapsilosis it was 32 µg/mL; against Pichia kudriavzevii, 2 µg/mL; in the assay on Cryptococcus neoformans, over 64 µg/mL; with Aspergillus fumigatus it was over 64 µg/mL. In the assay on Trichophyton rubrum, the MIC80 was over 64 µg/mL.
In the case of `CCCCCCCOc1ccc2cc(C(=O)N[C@H]3CCCNC(=O)[C@@H]4C[C@H](N)CN4C(=O)[C@H]([C@H](C)O)NC(=O)[C@H](CCc4ccc(O)cc4)NC(=O)[C@@H]4C[C@H](N)CN4C(=O)[C@H]([C@@H](C)O)NC3=O)ccc2c1.Cc1ccc(S(=O)(=O)O)cc1`, the MIC80 is 2 µg/mL in the assay on Candida albicans; 64 µg/mL against Candida tropicalis; 32 µg/mL against Candida parapsilosis; 8 µg/mL against Pichia kudriavzevii; over 64 µg/mL in the assay on Cryptococcus neoformans; over 64 µg/mL against Aspergillus fumigatus. The MIC80 in the assay with Trichophyton rubrum is over 64 µg/mL.
Turning to `CCCCCCCCOc1ccc2cc(C(=O)N[C@H]3CCCNC(=O)[C@@H]4C[C@H](N)CN4C(=O)[C@H]([C@H](C)O)NC(=O)[C@H](CCc4ccc(O)cc4)NC(=O)[C@@H]4C[C@H](N)CN4C(=O)[C@H]([C@@H](C)O)NC3=O)ccc2c1.Cc1ccc(S(=O)(=O)O)cc1`, the MIC80 in the assay on Candida albicans is 2 µg/mL; in the assay with Candida tropicalis it was 32 µg/mL; in the assay on Candida parapsilosis, 32 µg/mL; against Pichia kudriavzevii, 8 µg/mL; against Cryptococcus neoformans, over 64 µg/mL; against Aspergillus fumigatus it was over 64 µg/mL. Further, the MIC80 with Trichophyton rubrum was over 64 µg/mL.
For `CCCCCCCOc1ccc2cc(C(=O)N[C@H]3CCCNC(=O)[C@@H]4C[C@H](N)CN4C(=O)[C@H]([C@H](C)O)NC(=O)[C@H](CCc4ccc(O)cc4)NC(=O)[C@@H]4C[C@H](N)CN4C(=O)[C@H](CO)NC3=O)ccc2c1.Cc1ccc(S(=O)(=O)O)cc1`, the MIC80 with Candida albicans is over 64 µg/mL; with Candida tropicalis, 32 µg/mL; with Candida parapsilosis it was 32 µg/mL; in the assay on Pichia kudriavzevii, 8 µg/mL; against Cryptococcus neoformans it was over 64 µg/mL; in the assay on Aspergillus fumigatus it was over 64 µg/mL. For the same compound, the MIC80 against Trichophyton rubrum is 64 µg/mL.
For `CCCOc1ccc(-c2ccc(-c3ccc(C(=O)N[C@H]4CCCNC(=O)[C@@H]5C[C@H](N)CN5C(=O)[C@H](CCCCN)NC(=O)[C@H](CCc5ccc(O)cc5)NC(=O)[C@@H]5CCCN5C(=O)[C@H]([C@@H](C)O)NC4=O)cc3)cc2)cc1.Cc1ccc(S(=O)(=O)O)cc1` (X1-[Orn]TP[hTyr]K[Pro(4S-NH2)]; lactam 1-C), the MIC80 against Candida albicans is 0.25 µg/mL; with Candida tropicalis it was 16 µg/mL; against Candida parapsilosis it was 2 µg/mL; in the assay on Pichia kudriavzevii it was 1 µg/mL; against Cryptococcus neoformans, 16 µg/mL; against Aspergillus fumigatus it was 1 µg/mL. The same compound had an MIC80 against Trichophyton rubrum of 64 µg/mL.
Take `CCCOc1ccc(-c2ccc(-c3ccc(C(=O)N[C@H]4CCCNC(=O)[C@@H]5C[C@H](N)CN5C(=O)[C@H](CCCCN)NC(=O)[C@H](CCc5ccc(O)cc5)NC(=O)[C@@H]5CCCN5C(=O)[C@H](C(C)C)NC4=O)cc3)cc2)cc1.Cc1ccc(S(=O)(=O)O)cc1` (X1-[Orn]VP[hTyr]K[Pro(4S-NH2)]; lactam 1-C): the MIC80 against Candida albicans was 0.5 µg/mL; against Candida tropicalis, 16 µg/mL; with Candida parapsilosis, 4 µg/mL; in the assay with Pichia kudriavzevii it was 2 µg/mL; in the assay with Cryptococcus neoformans it was 32 µg/mL; against Aspergillus fumigatus it was 0.25 µg/mL. Moreover, the MIC80 with Trichophyton rubrum is 16 µg/mL.

For the origin of these results see ChEMBL document CHEMBL1949505, “Total synthesis and structure-activity relationships of new echinocandin-like antifungal cyclolipohexapeptides” (2012).
